Experimental data reported in patent US9889146B2, “Benzoxaborole compounds and uses thereof” (priority 2012, dated 2018).
≈ marks a conversion by molar mass, not a printed value. Read-outs that look alike come from different tables or passages of the source.

Assays:
Type in all cases: cell-based
[1] = system: Morganella morganii (AmpC); experiment: microbe, parasite or virus in culture; settings: Morganella morganii
Klebsiella spp. (WT) = experiment: microbe, parasite or virus in culture; settings: Klebsiella spp. (WT), 159 isolates; read-out: MIC90
Providencia spp.(all) = experiment: microbe, parasite or virus in culture; settings: Providencia spp.(all), 68 isolates; read-out: MIC90
[2] = system: Enterobacter cloacae (AmpC); experiment: microbe, parasite or virus in culture; settings: Enterobacter cloacae
[3] = system: Enterobacter aerogenes (WT); experiment: microbe, parasite or virus in culture; settings: Klebsiella aerogenes; Enterobacter aerogenes (WT), 199 isolates; read-out: MIC90
E. coli (WT) = experiment: microbe, parasite or virus in culture; settings: Escherichia coli; E. coli (WT), 214 isolates; read-out: MIC90
Enterobacteriaceae = experiment: organism not typed; settings: Enterobacteriaceae, 2029 isolates; read-out: MIC90
E. coli (ESBL) = experiment: microbe, parasite or virus in culture; settings: Escherichia coli
Klebsiella spp. (KPC) = experiment: microbe, parasite or virus in culture; settings: Klebsiella
Proteus mirabilis (WT) = experiment: microbe, parasite or virus in culture; settings: Proteus mirabilis (WT), 235 isolates; read-out: MIC90
S. marcescens (AmpC) = experiment: microbe, parasite or virus in culture; settings: Serratia marcescens
Proteus vulgaris (WT) = experiment: microbe, parasite or virus in culture; settings: Proteus vulgaris (WT), 41 isolates; read-out: MIC90
[4] = system: Enterobacter aerogenes (AmpC); experiment: microbe, parasite or virus in culture; settings: Klebsiella aerogenes
Klebsiella spp. (ESBL) = experiment: microbe, parasite or virus in culture; settings: Klebsiella
[5] = system: Enterobacter cloacae (WT); experiment: microbe, parasite or virus in culture; settings: 202 isolates, read-out: MIC90
[6] = system: Citrobacter freundii (AmpC); experiment: microbe, parasite or virus in culture; settings: Citrobacter freundii
P. aeruginosa = experiment: In vitro activity against P. aeruginosa clinical isolates; settings: P. aeruginosa, 2,008 clinical isolates; GSK2251052 based on potential susceptible breakpoint of ≦4 μg/mL
Procedure: GSK2251052 was tested for activity against P. aeruginosa, and its activity was compared to other antibiotics of known activity. The results are shown below in Tables 2a and 2b. Of 2,008 clinical isolates tested (from 2009-2010 subjects, of which 40% were from North America) greater than 90% were susceptible to GSK2251052 based on a potential susceptible breakpoint of ≦4 μg/mL.

[7] = system: K. pneumoniae ATCC 13883 wild type and mutants; experiment: MIC, wild type and GSK2251052 resistant mutants; settings: Klebsiella pneumoniae
Procedure: (§1) Spontaneous Resistance Frequency was determined in vitro for GSK2251052 and the resistance mutants in E. coli ATCC 25922, K. pneumoniae ATCC 13883, and P. aeruginosa ATCC 27853 strains were characterized. GSK2251052 was prepared as described in U.S. Pat. No. 7,816,344 (the entire contents of which are hereby incorporated by reference herein). LB broth, Mueller Hinton II broth (adjusted), and Difco noble agar were obtained from Becton Dickinson (Cockeysville, Md., USA). M9 minimal broth containing 1×M9 salt, 0.5 μg/ML thiamine, 1 mM MgSO4, 0.1 mM CaCl2, 2% glucose, was obtained from Teknova (Hollister, Calif., USA). Antibacterial agents ciprofloxacin, ceftazidime, chloramphenicol, gentamycin, kanamycin, polymixin B, tobramycin and trimethoprim, and amino acids were obtained from Sigma Chemicals (St. Louis, Mo., USA). Strains were obtained from ATCC (Manassas, Va., USA).
(§2) Susceptibility tests were performed following the recommendations for aerobic bacteria (M7-A7) from the Clinical and Laboratories Standards Institute (CLSI).
(§3) Laboratory generated mutants resistant to GSK2251052 contain mutations in the editing domain of LeuRS. Six to ten GSK2251052 resistant colonies of E. coli ATCC 25922, K. pneumoniae ATCC 13883 and P. aeruginosa ATCC 27853 were selected for further analysis and their MICs to GSK2251052 were determined (Table 4-7).

[8] = system: E. coli ATCC 25922 wild type and mutants; experiment: MIC, wild type and GSK2251052 resistant mutants; settings: Escherichia coli
Procedure: as §1, §2, §3

[9] = system: P. aeruginosa ATCC 27853 wild type and mutants; experiment: MIC, wild type and GSK2251052 resistant mutants; settings: Pseudomonas aeruginosa
Procedure: as §1, §2, §3

[10] = system: E. coli ATCC 25922, K. pneumoniae ATCC 13883 and P. aeruginosa ATCC 27853; experiment: MIC, three strains and their mutants summarised; settings: MIC in E. coli, P. aeruginosa and K. pneumoniae mutants versus wild-type
Procedure: as §1, §2, §3
GSK2251052 resistant mutants were not cross-resistant to commercial antibiotics.

E. coli ATCC 25922 = experiment: Spontaneous frequency of resistance; settings: 24 h
Procedure: as §1
(§4) Selection of resistance to GSK2251052 was attempted by spreading various amounts of bacteria onto MHBII noble agar plates containing 4×MIC (minimum inhibitory concentration) or 10×MIC of GSK2251052. Colonies were counted after 24 hours and 48 hours incubation at 37° C. The resistance of these colonies was confirmed by their ability to grow on plates containing GSK2251052 at either 4× or 10×MIC. Frequency of resistance was determined by dividing the number of resistant mutants by the total number of cells plated as determined by plating dilutions of the overnight culture on LB plates.

K. pneumoniae ATCC 13883 = experiment: Spontaneous frequency of resistance; settings: 24 h
Procedure: as §1, §4

P. aeruginosa ATCC 27853 = experiment: Spontaneous frequency of resistance; settings: 24 h
Procedure: as §1, §4

[11] = ATCC13883, K wt., read-out: MICs
[12] = ATCC13883, read-out: MICs, mutant K 104
[13] = ATCC13883, read-out: MICs, mutant K 105
[14] = ATCC13883, read-out: MICs, mutant K 107
[15] = ATCC13883, read-out: MICs, mutant K 108
[16] = ATCC13883, read-out: MICs, mutant K 110
[17] = ATCC25922, E wt, read-out: MICs
[18] = ATCC25922, read-out: MICs, mutant E 101
[19] = ATCC25922, read-out: MICs, mutant E 102
[20] = ATCC25922, read-out: MICs, mutant E 107
[21] = ATCC27853, P wt., read-out: MICs
[22] = ATCC27853, read-out: MICs, mutant P 101
[23] = ATCC27853, read-out: MICs, mutant P106
[24] = ATCC27853, read-out: MICs, mutant P108

| SMILES | MIC90 [1] [mg/L] | MIC90 (Klebsiella spp. (WT)) [mg/L] | MIC90 (Providencia spp.(all)) [mg/L] | MIC90 [3] [mg/L] | MIC90 (E. coli (WT)) [mg/L] | MIC90 (Enterobacteriaceae) [mg/L] | MIC90 (E. coli (ESBL)) [mg/L] | MIC90 (Klebsiella spp. (KPC)) [mg/L] | MIC90 (Proteus mirabilis (WT)) [mg/L] | MIC90 (S. marcescens (AmpC)) [mg/L] | MIC90 (Proteus vulgaris (WT)) [mg/L] | MIC90 [4] [mg/L] | MIC90 (Klebsiella spp. (ESBL)) [mg/L] | MIC90 [6] [mg/L] | MIC [7, 11] [mg/L] | MIC [7, 12] [mg/L] | MIC [7, 13] [mg/L] | MIC [7, 14] [mg/L] | MIC [7, 15] [mg/L] | MIC [7, 16] [mg/L] | further results |
| --- | --- | --- | --- | --- | --- | --- | --- | --- | --- | --- | --- | --- | --- | --- | --- | --- | --- | --- | --- | --- | --- |
| CC1(C)S[C@@H]2[C@H](NC(=O)[C@H](N)c3ccccc3)C(=O)N2[C@H]1C(=O)O [Ampicillin] | > 64 | > 64 | > 64 | > 64 | > 64 | > 64 | > 64 | > 64 | > 64 | > 64 | > 64 | > 64 | > 64 | > 64 |  |  |  |  |  |  | MIC90 [2]: > 64 mg/L; MIC90 [5]: > 64 mg/L |
| CO/N=C(\C(=O)N[C@@H]1C(=O)N2C(C(=O)[O-])=C(C[N+]3(C)CCCC3)CS[C@H]12)c1csc(N)n1 [Cefepime] | > 32 | ≤ 1 | > 32 | ≤ 1 | ≤ 1 | 4 (≈ 8.32 µM) | > 32 | > 32 | ≤ 1 | 8 (≈ 16.6 µM) | ≤ 1 | 8 (≈ 16.6 µM) | > 32 | 16 (≈ 33.3 µM) |  |  |  |  |  |  | % susceptible (P. aeruginosa): 75.3% |
| O=C(N[C@H](CO)[C@H](O)c1ccc([N+](=O)[O-])cc1)C(Cl)Cl [Chloramphenicol] |  |  |  |  |  |  |  |  |  |  |  |  |  |  | 4 (≈ 12.4 µM) | 8 (≈ 24.8 µM) | 8 (≈ 24.8 µM) | 8 (≈ 24.8 µM) | 8 (≈ 24.8 µM) | 8 (≈ 24.8 µM) | MIC [8, 17]: 8 mg/L (≈ 24.8 µM); MIC [8, 18]: 8 mg/L (≈ 24.8 µM); MIC [8, 19]: 8 mg/L (≈ 24.8 µM); MIC [8, 20]: 8 mg/L (≈ 24.8 µM); MIC [9, 21]: > 64 mg/L; MIC [9, 22]: > 64 mg/L; MIC [9, 23]: > 64 mg/L; MIC [9, 24]: > 64 mg/L; cross-resistance of GSK2251052 resistant mutants [10]: did not have any significant difference in MIC values than wild-type |
| O=C(O)c1cn(C2CC2)c2cc(N3CCNCC3)c(F)cc2c1=O [Ciprofloxacin] |  |  |  |  |  |  |  |  |  |  |  |  |  |  | 0.125 (≈ 0.377 µM) | 0.03 (≈ 0.0905 µM) | 0.06 (≈ 0.181 µM) | 0.06 (≈ 0.181 µM) | 0.03 (≈ 0.0905 µM) | 0.03 (≈ 0.0905 µM) | Frequency of Resistance (E. coli ATCC 25922; 4 X MIC): 2 × 10^−8; Frequency of Resistance (E. coli ATCC 25922; 10 X MIC): <4 × 10^−9; Frequency of Resistance (K. pneumoniae ATCC 13883; 4 X MIC): 5 × 10^−7; Frequency of Resistance (K. pneumoniae ATCC 13883; 10 X MIC): <5 × 10^−9; Frequency of Resistance (P. aeruginosa ATCC 27853; 4 X MIC): 1 × 10^−8; Frequency of Resistance (P. aeruginosa ATCC 27853; 10 X MIC): <1 × 10^−9; MIC [8, 17]: 0.008 mg/L (≈ 0.0241 µM); MIC [8, 18]: 0.008 mg/L (≈ 0.0241 µM); MIC [8, 19]: 0.008 mg/L (≈ 0.0241 µM); MIC [8, 20]: 0.015 mg/L (≈ 0.0453 µM); MIC [9, 21]: 0.5 mg/L (≈ 1.51 µM); MIC [9, 22]: 1 mg/L (≈ 3.02 µM); MIC [9, 23]: 1 mg/L (≈ 3.02 µM); MIC [9, 24]: 0.5 mg/L (≈ 1.51 µM); cross-resistance of GSK2251052 resistant mutants [10]: did not have any significant difference in MIC values than wild-type |
